Laboratory results as given in BindingDB's records for doi:10.3109/14756361003691860 (Tarbiat Modares University, 2010).

target: Acetylcholinesterase (Homo sapiens, UniProt P22303); assay: AChE Inhibition Assay; conditions: pH 7.4; 37 °C
Experimental: The reaction was carried out at 37°C in 70 mM phosphate buffer (Na2HPO4/NaH2PO4, pH 7.4) containing the enzyme (20 μl volume, diluted 100 times in phosphate buffer, pH 7.4), DTNB (5,5-dithiobis(2-nitrobenzoic acid)) (10−4M concentration) and ATCh (1.35 × 10−4M concentration). The absorbance change at 37°C was monitored with the spectrophotometer at 412 nm for 3 min. and three replicates were run in each experiment.

Acetylcholinesterase, sequence (P22303 whole entry): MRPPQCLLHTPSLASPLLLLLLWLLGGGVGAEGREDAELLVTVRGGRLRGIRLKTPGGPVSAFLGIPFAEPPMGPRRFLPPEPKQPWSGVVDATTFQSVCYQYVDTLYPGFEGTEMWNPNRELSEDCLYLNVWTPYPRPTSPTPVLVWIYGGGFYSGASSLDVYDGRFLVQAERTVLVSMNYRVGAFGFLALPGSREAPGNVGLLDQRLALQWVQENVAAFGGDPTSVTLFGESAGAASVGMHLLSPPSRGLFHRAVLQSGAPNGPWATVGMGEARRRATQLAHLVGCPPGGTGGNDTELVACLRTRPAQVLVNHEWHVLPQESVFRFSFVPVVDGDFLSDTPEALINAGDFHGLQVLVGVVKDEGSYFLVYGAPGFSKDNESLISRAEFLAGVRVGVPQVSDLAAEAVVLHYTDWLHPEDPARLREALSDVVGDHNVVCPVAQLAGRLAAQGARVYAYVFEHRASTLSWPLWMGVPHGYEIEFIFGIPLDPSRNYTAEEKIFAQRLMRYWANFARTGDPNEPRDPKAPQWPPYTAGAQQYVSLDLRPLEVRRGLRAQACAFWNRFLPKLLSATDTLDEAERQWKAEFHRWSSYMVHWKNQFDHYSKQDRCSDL

Going from `CCN(CP(=O)(O)O)CP(=O)(O)O` [N-Ethyliminobis(methylenephosphonic acid) (2)] to `CCCN(CP(=O)(O)O)CP(=O)(O)O` [N-Propyliminobis(methylenephosphonic acid) (3)], the IC50 falls from 22.1 mM to 12.7 mM (1.7-fold).

`O=P(O)(O)CN(Cc1ccccc1)CP(=O)(O)O` [N-Benzyliminobis(methylenephosphonic acid) (7)] and `O=P(O)(O)CN(CCc1ccccc1)CP(=O)(O)O` [N-2-Phenyl ethyliminobis(methylenephosphonic acid) (8)] are within 1.5-fold of each other in IC50: 11.9 mM for the first, 11 mM for the second.

`CCCCC(CC)CN(CP(=O)(O)O)CP(=O)(O)O` (stereo unspecified) [N-2-Ethyl hexyliminobis(methylenephosphonic acid) (6)] and `CCCCCN(CP(=O)(O)O)CP(=O)(O)O` [N-Pentyliminobis(methylenephosphonic acid) (4)] are within 1.5-fold of each other in IC50: 9.48 mM for the first, 11.7 mM for the second.

Going from `O=P(O)(O)CN1CCCN(CP(=O)(O)O)CC1` [Homopiperazine-1,4-bis(methylenephosphonic acid) (11)] to `O=P(O)(O)CN(CP(=O)(O)O)C1CCCCC1` [N-Cyclohexyliminobis(methylenephosphonic acid) (10)], the IC50 falls from 28.7 mM to 9.96 mM (2.9-fold).

Compared with `O=P(O)(O)CN(CP(=O)(O)O)C1CCCC1` [N-Cyclopentyliminobis(methylenephosphonic acid) (9)], `CN(CP(=O)(O)O)CP(=O)(O)O` [N-Methyliminobis(methylenephosphonic acid) (1)] is 2.5-fold higher in IC50: 11.1 mM for the first, 28.1 mM for the second. The first is the more potent here.

Compound `CC(C)N(CP(=O)(O)O)CP(=O)(O)O` [N-Isopropyliminobis(methylenephosphonic acid) (5)] has an IC50 of 9.11 mM.
